Read-outs that look alike come from different tables or passages of the source.
Assays:
[1] = cited from earlier work
[2] = test system: patients with uncontrolled gout; assay: Adverse events of special interest: gout flares during the Methotrexate Run-in Period; format: in vivo, human; settings: for Number of Gout Flares per Subject among subjects with at least one gout flare, Mean / Number of Gout Flares per Subject among subjects with at least one gout flare, Median / Gout Flares, % of subjects / Subjects with 1 gout flare, % / Subjects with 2 gout flares, %: Methotrexate Run-in Period
Description: As used herein, a “gout flare” refers to a manifestation of physiological or biochemical symptoms of gout, which is a possible side effect or AE associated with treatment with KXX. A gout flare may produce burning itching, tingling, or stiffness in the joints, particularly the peripheral joints. An individual may also experience redness, swelling, and pain in the joints. In accordance with the disclosure, gout flares may initially increase when starting treatment with KXX. For such individuals, medications to help reduce flares may be taken regularly for the first few months after KXX is started. […] In some embodiments, gout flare prophylaxis may include, but is not limited to, In some embodiments, prophylactic treatment may be given prior to an infusion of KXX, for example one week prior to treatment with KXX.
Gout Flare Treatment—An increase in gout flares was frequently observed upon initiation of anti-hyperuricemic therapy, including treatment with pegloticase. Participants were instructed to contact the site within 12 hours of the onset of symptoms. Gout flares were confirmed through questioning or direct observation. All participants who experience a gout flare during the study were prescribed anti-inflammatory treatment (e.g., corticosteroids, NSAIDs, colchicine) as deemed clinically indicated by the study physician.

[3] = test system: patients with chronic gout; settings: cited from earlier work
[4] = Stability of pegloticase diluted in infusion bags; format: physicochemical; settings: at 2° C. to 8° C. and at room temperature (20° C. to 25° C.); 0.45% or 0.9% Sodium Chloride
Experimental: Preparation—Vials were visually inspected for particulate matter and discoloration before administration, whenever solution and container permit. Vials were not used if either was present. Using appropriate aseptic technique, 1 mL of pegloticase was withdrawn from the vial into a sterile syringe. Any unused portion of product remaining in the vial was discarded. Syringe contents were injected into a single 250 mL bag of 0.45% or 0.9% Sodium Chloride Injection, United States Pharmacopeia (USP) for IV infusion and was not mixed or diluted with other drugs. The infusion bag containing the dilute pegloticase solution was inverted several times, but not shaken, to ensure thorough mixing.
Pegloticase diluted in infusion bags was stable for 4 hours at 2° C. to 8° C. (36° F. to 46° F.) and at room temperature (20° C. to 25° C., 68° F. to 77° F.); however, the diluted solution was stored under refrigeration, not frozen, protected from light, and used within 4 hours of dilution. Before administration, the diluted solution of pegloticase was allowed to reach room temperature. Pegloticase in a vial or IV infusion fluid was never subjected to artificial heating.

CN(Cc1cnc2nc(N)nc(N)c2n1)c1ccc(C(=O)N[C@@H](CCC(=O)O)C(=O)O)cc1 [MTX, methotrexate]
Increased susceptibility to infection ([1]; RA): < 1%
Leukopenia ([1]; RA): 28%
Nausea and vomiting ([1]; RA): 12%
Increased susceptibility to infection ([1]; renal transplant): 20%
Leukopenia ([1]; renal transplant): > 50%
neoplasia (lymphoma) ([1]; renal transplant): 0.5%
neoplasia (other than lymphoma) ([1]; renal transplant): 3%
Maximum Reported Intensity of Flare (0-10 scale), Max ([2]; Day 1, ITT): 8
Maximum Reported Intensity of Flare (0-10 scale), Mean ([2]; Day 1, ITT): 5.8
Maximum Reported Intensity of Flare (0-10 scale), Median ([2]; Day 1, ITT): 5.5
Maximum Reported Intensity of Flare (0-10 scale), Min ([2]; Day 1, ITT): 4
Any Gout Flares Since the Last Visit, % ([2]; Day 1, ITT, 14 assessed): (57.1) %
Pain at rest >3 out of 10, % ([2]; Day 1, ITT, 14 assessed): (57.1) %
Pain different than normal, % ([2]; Day 1, ITT, 14 assessed): (50.0) %
Swelling in Joints, % ([2]; Day 1, ITT, 14 assessed): (42.9) %
Maximum Reported Intensity of Flare (0-10 scale), Max ([2]; Day 1, mITT): 8
Maximum Reported Intensity of Flare (0-10 scale), Mean ([2]; Day 1, mITT): 5.8
Maximum Reported Intensity of Flare (0-10 scale), Median ([2]; Day 1, mITT): 5.5
Maximum Reported Intensity of Flare (0-10 scale), Min ([2]; Day 1, mITT): 4
Any Gout Flares Since the Last Visit, % ([2]; Day 1, mITT, 14 assessed): (57.1) %
Pain at rest >3 out of 10, % ([2]; Day 1, mITT, 14 assessed): (57.1) %
Pain different than normal, % ([2]; Day 1, mITT, 14 assessed): (50.0) %
Swelling in Joints, % ([2]; Day 1, mITT, 14 assessed): (42.9) %
Number of Gout Flares per Subject among subjects with at least one gout flare, Mean ([2]; ITT): 1.2
Number of Gout Flares per Subject among subjects with at least one gout flare, Median ([2]; ITT): 1.0
Gout Flares, % of subjects ([2]; ITT N = 15): (33.3) %
Subjects with 1 gout flare, % ([2]; ITT N = 15): (26.7) %
Subjects with 2 gout flares, % ([2]; ITT N = 15): (6.7) %
Number of Gout Flares per Subject among subjects with at least one gout flare, Mean ([2]; mITT): 1.2
Number of Gout Flares per Subject among subjects with at least one gout flare, Median ([2]; mITT): 1.0
Gout Flares, % of subjects ([2]; mITT N = 14): (35.7) %
Subjects with 1 gout flare, % ([2]; mITT N = 14): (28.6) %
Subjects with 2 gout flares, % ([2]; mITT N = 14): (7.1) %
Maximum Reported Intensity of Flare (0-10 scale), Max ([2]; Week −4, ITT): 10
Maximum Reported Intensity of Flare (0-10 scale), Mean ([2]; Week −4, ITT): 8.5
Maximum Reported Intensity of Flare (0-10 scale), Median ([2]; Week −4, ITT): 8.0
Maximum Reported Intensity of Flare (0-10 scale), Min ([2]; Week −4, ITT): 7
Any Gout Flares Since the Last Visit, % ([2]; Week −4, ITT, 14 assessed): (57.1) %
Pain at rest >3 out of 10, % ([2]; Week −4, ITT, 14 assessed): (50.0) %
Pain different than normal, % ([2]; Week −4, ITT, 14 assessed): (42.9) %
Swelling in Joints, % ([2]; Week −4, ITT, 14 assessed): (50.0) %
Maximum Reported Intensity of Flare (0-10 scale), Max ([2]; Week −4, mITT): 10
Maximum Reported Intensity of Flare (0-10 scale), Mean ([2]; Week −4, mITT): 8.2
Maximum Reported Intensity of Flare (0-10 scale), Median ([2]; Week −4, mITT): 8.0
Maximum Reported Intensity of Flare (0-10 scale), Min ([2]; Week −4, mITT): 7
Any Gout Flares Since the Last Visit, % ([2]; Week −4, mITT, 13 assessed): (53.8) %
Pain at rest >3 out of 10, % ([2]; Week −4, mITT, 13 assessed): (46.2) %
Pain different than normal, % ([2]; Week −4, mITT, 13 assessed): (38.5) %
Swelling in Joints, % ([2]; Week −4, mITT, 13 assessed): (46.2) %

B1: pegloticase (protein)
chain: TYKKNDEVEFVRTGYGKDMIKVLHIQRDGKYHSIKEVATTVQLTLSSKKDYLHGDNSDVIPTDTIKNTVNVLAKFKGIKSIETFAVTICEHFLSSFKHVIRAQVYVEEVPWKRFEKNGVKHVHAFIYTPTGTHFCEVEQIRNGPPVIHSGIKDLKVLKTTQSGFEGFIKDQFTTLPEVKDRCFATQVYCKWRYHQGRDVDFEATWDTVRSIVLQKFAGPYDKGEYSPSVQKTLYDIQVLTLGQVPEIEDMEISLPNIHYLNIDMSKMGLINKEEVLLPLDNPYGKITGTVKRKLSSRL
modifications: monomethoxy PEG conjugated; Krystexxa Sequence
notes: covalent conjugate of uricase produced by a genetically modified strain of Escherichia coli and monomethoxypoly (ethylene glycol)
patients with IRs in whom loss of response (return to SUA >6 mg/dL) preceded the first IR ([3]; 20/21 pegloticase-treated patients with IRs): 95%
incidence of infusion reactions ([3]; pegloticase 8 mg every 2 weeks (biweekly dosing)): 26%
incidence of infusion-related reactions ([3]; pegloticase 8 mg every-4-week dosing regimen): 40%
frequency of anaphylaxis ([3]; pre-marketing controlled clinical trials): 6.5%
stability of pegloticase diluted in infusion bags [4]: 4 h
